Here are results for 10 molecules from patent EP0004590A1, “Penicillin and cephalosporin derivatives, processes for their preparation and their applications” (BAYER AG, priority 1978, dated 1979).

In one test the test system is E. coli Neumann. Put plainly: Minimum inhibitory concentration (MHK). In kind it is cell-based.
The test system of the next test is Serratia 16 001. The test is described as follows: Minimum inhibitory concentration (MHK). Type of test: cell-based.
The subject of the next test is Proteus rettg. Put plainly: Minimum inhibitory concentration (MHK). In kind it is cell-based.
The subject of another test is Provid. 12012. The test is described as follows: Minimum inhibitory concentration (MHK). Type of test: cell-based.
For the next test, the system named is Klebsiella 6097. Put plainly: Minimum inhibitory concentration (MHK). Type of test: cell-based.
A further test concerns Prot. vulg. 9023. The test is described as follows: Minimum inhibitory concentration (MHK). In kind it is cell-based.
The test system of the next test is E. coli C 165. Put plainly: Minimum inhibitory concentration (MHK). Type of test: cell-based.
For the next test, the system named is E.coli 183/58. Put plainly: Minimum inhibitory concentration (MHK). Type of test: cell-based.
The next test concerns Klebs. 63. The test is described as follows: Minimum inhibitory concentration (MHK). In kind it is cell-based.
The next test deals with Escherichia coli Neumann. Put plainly: Animal test with the white mouse, intraperitoneal infection, ED50 after 24 hours. Conditions: sc; white mice strain CF1 infected intraperitoneally with Escherichia coli Neumann; subcutaneous; therapy 30 and 90 minutes after infection; dose at which 50 % of infected animals survive after 24 hours; read-out: ED50 nach 24 Stunden. Type of test: in vivo, weiße Maus. The text has this:
Aus der folgenden Tabelle 1 geht die Wirkung einer der erfindungsgemäßen Verbindungen gegen eine Reihe von Bakterien im Tierversuch mit der weißen Maus hervor. Die weißen Mäuse vom Stamm CF1 wurden intraperitoneal mit der jeweils angegebenen Bakterienart infiziert.
Therapie: zweimalig : 30 und 90 Minuten nach der Infektion. Die ED50 ist die Dosis, bei der 50 % der infizierten Tiere nach 24 Stunden nocht überleben.

The subject of the next test is Psdm. F 41. Put plainly: Minimum inhibitory concentration (MHK). Type of test: cell-based.
The test system of a further test is E. coli 4322. Put plainly: Minimum inhibitory concentration (MHK). Type of test: cell-based.

For the molecule `CN1C(=O)CCN(C(=O)N[C@@H](C(=O)N[C@@H]2C(=O)N3[C@@H]2SC(C)(C)[C@@H]3C(=O)O)c2ccccc2)C1=O` [Beispiel 1], in the test with E. coli Neumann, the “Wirksamkeit (MHK in E/ml)” value was found to be 4 E/ml.

`CN1C(=O)CCN(C(=O)N[C@@H](C(=O)N[C@@H]2C(=O)N3[C@@H]2SC(C)(C)[C@@H]3C(=O)O)c2ccc(O)cc2)C1=O` [Beispiel 2]: the “Wirksamkeit (MHK in E/ml)” value in the test with Serratia 16 001 is 16 E/ml.

For `CC(=O)OCC1=C(C(=O)O)N2C(=O)[C@@H](NC(=O)[C@H](NC(=O)N3CCC(=O)N(C)C3=O)c3ccccc3)[C@H]2SC1` [Beispiel 3], in the test with E. coli Neumann, the “Wirksamkeit (MHK in E/ml)” value is 8-16 E/ml.

For the molecule `CCN1C(=O)CCN(C(=O)N[C@@H](C(=O)N[C@@H]2C(=O)N3[C@@H]2SC(C)(C)[C@@H]3C(=O)O)c2ccccc2)C1=O` [Beispiel 4], the “Wirksamkeit (MHK in E/ml)” value in the test with Proteus rettg. was 16 E/ml; in the test with E. coli Neumann, 4 E/ml; in the test on Provid. 12012 it was 16 E/ml; with Klebsiella 6097 it was 16 E/ml.

As to `CCN1C(=O)CCN(C(=O)N[C@@H](C(=O)N[C@@H]2C(=O)N3[C@@H]2SC(C)(C)[C@@H]3C(=O)O)c2ccc(O)cc2)C1=O` [Beispiel 5], the “Wirksamkeit (MHK in E/ml)” value in the test on Prot. vulg. 9023 and with E. coli C 165 was 16 E/ml in each case.

Turning to `CCCN1C(=O)CCN(C(=O)N[C@@H](C(=O)N[C@@H]2C(=O)N3[C@@H]2SC(C)(C)[C@@H]3C(=O)O)c2ccccc2)C1=O` [Beispiel 6], the “Wirksamkeit (MHK in E/ml)” value with E.coli 183/58 stood at 4 E/ml; in the test with Klebsiella 6097, 16 E/ml.

As to `CCCN1C(=O)CCN(C(=O)N[C@@H](C(=O)N[C@@H]2C(=O)N3C(C(=O)O)=C(COC(C)=O)CS[C@H]23)c2ccccc2)C1=O` [Beispiel 8], the “Wirksamkeit (MHK in E/ml)” value in the test on Prot. vulg. 9023 was 8 - 16 E/ml; in the test with E. coli Neumann, 4 E/ml.

Usually ED50 stands for the midpoint of the dose-response relation. `CC1(C)S[C@@H]2[C@H](NC(=O)[C@H](NC(=O)N3CCC(=O)N(C4CC4)C3=O)c3ccccc3)C(=O)N2[C@H]1C(=O)O` [Beispiel 9]: the “Wirksamkeit (MHK in E/ml)” value is given as 4 E/ml with E. coli Neumann, 8 - 16 E/ml in the test on Klebs. 63 and 16 E/ml in the test with Serratia 16 001. In addition, the ED50 with Escherichia coli Neumann came out at 300 mg/kg.

Turning to `CC1(C)S[C@@H]2[C@H](NC(=O)[C@H](NC(=O)N3CCC(=O)N(C4CC4)C3=O)c3ccc(O)cc3)C(=O)N2[C@H]1C(=O)O` [Beispiel 10], the “Wirksamkeit (MHK in E/ml)” value with Psdm. F 41 stood at 64 E/ml; in the test on E. coli 4322, 16 E/ml.

Consider `CC(=O)OCC1=C(C(=O)O)N2C(=O)[C@@H](NC(=O)[C@H](NC(=O)N3CCC(=O)N(C4CC4)C3=O)c3ccccc3)[C@H]2SC1` [Beispiel 11], for which, in the test on E.coli 183/58, the “Wirksamkeit (MHK in E/ml)” value came to 16 E/ml.
